The values below come from publication PMC12732581, “Molecular and System-Level Characterization of MMP12 Suppression in Lung Cancer: A Combined Bioinformatics and Molecular Approach” (International Journal of Molecular Sciences, 2025).

Some results are limits rather than exact numbers.

One assay has as its system H1299 lung cancer cells. Put plainly: MTT cell viability assay, H1299. It counts as cell-based, human. On the procedure:
(§1) To evaluate the impact of MMP12 inhibitors on lung cancer cell lines, an MTT assay was performed on A549, H1299, and H661 cells exposed to varying concentrations of inhibitors over 48, 72, and 96 h.
(§2) The lung cancer cell lines referenced as A549, H1299, and H661 were acquired from the American Type Culture Collection (ATCC, Manassas, VA, USA). Fibroblast cells of dermal origin were used as a model for normal human tissue, which were also purchased from ATCC. A549, H1299, and H661 cells were maintained in the RPMI culture medium, while fibroblast cells were maintained in the DMEM high glucose culture medium. Both RPMI and DMEM culture media were supplemented with 100 U/mL penicillin, 0.1 mg/mL streptomycin to prevent bacterial growth, 10% FBS to promote cell growth, and 2 mM L-glutamine as an energy source.
(§3) The 3-(4,5-dimethylthiazol-2-yl)-2,5-diphenyltetrazolium bromide (MTT) assay was employed to evaluate cell proliferation as previously noted. All experiments were performed in triplicate wells and were repeated at least twice independently. The percentage of the relative cell viability of treated cells versus the untreated cells (negative controls) was calculated using the following formula in Equation (1) (cell viability calculation):(1) Cell viability%=optical density of treated cells/optical density of untreated cells×100

A further assay concerns the target T1, recombinant human MMP12 (Homo sapiens, UniProt P39900).
T1 construct: purchased Abcam
Put plainly: MMP12 colorimetric thiopeptide enzyme inhibition assay (Abcam). In kind it is biochemical. The following applies: at 50 µM. On the procedure: The enzyme inhibition potential of synthesized p-chlorocinnamic acid derivatives against MMP12 was assessed using the Abcam colorimetric assay.
The inhibitory activity of the newly synthesized compounds against MMP12 was assessed using a previously established enzymatic assay protocol, as described in our earlier study. In brief, we conducted a colorimetric thiopeptide-based inhibition assay for MMP12 using recombinant human MMP12 and the reference inhibitor NNGH as a positive control. The IC50 values were calculated using GraphPad Prism version 9 (GraphPad Software, San Diego, CA, USA).

For another assay, the system named is A549 lung cancer cells. Nature of the assay: MTT cell viability assay, A549. It counts as cell-based, human. How it is done:
as §1, §2, §3
(In general: Tetrazolium assays rely on reduction of a dye to a coloured formazan, in cell work by metabolically active cells.)

For another assay, the system named is H661 lung cancer cells. Nature of the assay: MTT cell viability assay, H661. It counts as cell-based, human. How it is done:
as §1, §2, §3

A further assay relates to H1299 cells. Nature of the assay: Annexin V-FITC/PI apoptosis assay (flow cytometry). To be noted: H1299, double IC50, 72 h.

T1 sequence (P39900 106-470): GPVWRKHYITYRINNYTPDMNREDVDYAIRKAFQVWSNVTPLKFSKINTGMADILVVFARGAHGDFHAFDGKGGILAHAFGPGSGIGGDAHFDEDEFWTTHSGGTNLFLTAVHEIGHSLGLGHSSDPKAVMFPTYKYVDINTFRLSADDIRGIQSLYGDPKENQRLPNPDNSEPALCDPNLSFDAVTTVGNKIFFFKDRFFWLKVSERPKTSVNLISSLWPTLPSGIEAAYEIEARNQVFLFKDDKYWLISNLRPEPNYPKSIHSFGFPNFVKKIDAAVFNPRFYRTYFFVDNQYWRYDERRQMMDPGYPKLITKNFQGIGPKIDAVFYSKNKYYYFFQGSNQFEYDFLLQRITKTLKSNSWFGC
Procedure for H1299 cells: Apoptosis was assessed using Annexin-V/PI staining, following the method described earlier with minor modifications [84]. […] After the treatment, the cells were collected and stained with Annexin-V-FITC and propidium iodide. The stained cells were then analyzed using a BD FACSCanto II flow cytometer (Becton, Dickinson and Company (BD), Franklin Lakes, NJ, USA) and FACSDiva software (Becton, Dickinson and Company (BD), Franklin Lakes, NJ, USA).

In the case of `Cc1ccc(C(=O)c2ccccc2NC(=O)/C=C/c2ccc(Cl)cc2)cc1` [Compound C6], the half-maximal inhibitory concentration (IC50) (as a rule, the concentration needed to halve the response being measured) is 361 µM in the assay with H1299 lung cancer cells (H1299, 48 h); 268 µM in the assay with H1299 lung cancer cells (H1299, 72 h); 256 µM in the assay with H1299 lung cancer cells (H1299, 96 h); over 1000 µM with A549 lung cancer cells (A549, 48 h); over 1000 µM with A549 lung cancer cells (A549, 72 h); 830 µM with A549 lung cancer cells (A549, 96 h). Moreover, the IC50 in the assay with H661 lung cancer cells (H661, 48 h) turned out to be 448 µM; in the assay on H661 lung cancer cells (H661, 72 h), 260 µM; in the assay with H661 lung cancer cells (H661, 96 h) it was 270 µM. Besides, the MMP12 enzyme inhibition at recombinant human MMP12 is 21.3%.

Turning to `O=C(/C=C/c1ccc(Cl)cc1)Nc1cccc(C(=O)c2ccccc2)c1` [Compound C2], the IC50 in the assay with H1299 lung cancer cells (H1299, 48 h) is 827 µM; in the assay with H1299 lung cancer cells (H1299, 72 h), 692 µM; in the assay with H1299 lung cancer cells (H1299, 96 h), 349 µM; in the assay with A549 lung cancer cells (A549, 48 h) it was over 1000 µM; in the assay on A549 lung cancer cells (A549, 72 h) it was over 1000 µM; in the assay with A549 lung cancer cells (A549, 96 h) it was over 1000 µM. For the same molecule, the IC50 in the assay with H661 lung cancer cells (H661, 48 h) was found to be 599 µM; in the assay with H661 lung cancer cells (H661, 72 h) it was 410 µM; in the assay with H661 lung cancer cells (H661, 96 h) it was 350 µM. Also, at recombinant human MMP12, the MMP12 enzyme inhibition came out at 35.0%.

Turning to `O=C(/C=C/c1ccc(Cl)cc1)Nc1ccccc1C(=O)c1ccccc1` [Compound C5], the half-maximal inhibitory concentration (IC50) in the assay with H1299 lung cancer cells (H1299, 48 h) was 636 µM; with H1299 lung cancer cells (H1299, 72 h), 449 µM; in the assay on H1299 lung cancer cells (H1299, 96 h) it was 419 µM; in the assay with A549 lung cancer cells (A549, 48 h), over 1000 µM; in the assay on A549 lung cancer cells (A549, 96 h), 865 µM; in the assay with H661 lung cancer cells (H661, 48 h), 489 µM. The IC50 amounted to 366 µM in the assay with H661 lung cancer cells (H661, 72 h) and 226 µM in the assay with H661 lung cancer cells (H661, 96 h). In addition, the MMP12 enzyme inhibition on recombinant human MMP12 came to 11.5%.

In the case of `O=C(/C=C/c1ccc(Cl)cc1)Nc1ccc(Cl)cc1C(=O)c1ccccc1` [Compound C3], the IC50 with H1299 lung cancer cells (H1299, 48 h) is 557 µM; with H1299 lung cancer cells (H1299, 72 h), 401 µM; in the assay on H1299 lung cancer cells (H1299, 96 h), 338 µM; in the assay with A549 lung cancer cells (A549, 48 h), 251 µM; in the assay with A549 lung cancer cells (A549, 72 h), 269 µM; with A549 lung cancer cells (A549, 96 h), 999 µM. Further, the IC50 in the assay with H661 lung cancer cells (H661, 48 h) worked out at 571 µM; in the assay on H661 lung cancer cells (H661, 72 h), 301 µM; in the assay with H661 lung cancer cells (H661, 96 h), 203 µM. Also, the MMP12 enzyme inhibition at recombinant human MMP12 is on record as 23.5%.

For `N.N.[Cl][Pt][Cl]` [Cisplatin, reference compound], the “Necrosis (%) (Annexin−/PI+, Q1-UL)” value in the assay with H1299 cells (control 0.7) was 1.7%. The “Late Apoptosis (%) (Annexin+/PI+, Q1-UR)” value with H1299 cells (control 2.6) came out at 11.6%. Further, in the assay with H1299 cells (control 8.7), the “Early Apoptosis (%) (Annexin+/PI−, Q1-LR)” value stood at 28.6%. For the same molecule, in the assay on H1299 cells (control 11.3), the “Total Apoptosis (%)” value worked out at 40.2%.

Regarding `Cc1ccc(NC(=O)/C=C/c2ccc(Cl)cc2)c(C(=O)c2ccccc2)c1` [Compound C4], the IC50 in the assay with H1299 lung cancer cells (H1299, 48 h) was determined as 616 µM; with H1299 lung cancer cells (H1299, 72 h), 302 µM; in the assay with H1299 lung cancer cells (H1299, 96 h) it was 254 µM; in the assay with A549 lung cancer cells (A549, 48 h), 963 µM; with A549 lung cancer cells (A549, 72 h), 396 µM; with A549 lung cancer cells (A549, 96 h), 168 µM. The IC50 is 562 µM in the assay with H661 lung cancer cells (H661, 48 h); 319 µM in the assay on H661 lung cancer cells (H661, 72 h); 146 µM in the assay with H661 lung cancer cells (H661, 96 h). In addition, the MMP12 enzyme inhibition at recombinant human MMP12 came to 23.3%.
